Structures can show the parent of a compound that is named as a salt.
Molecular target: T1, human HIF-PHD2 (Homo sapiens, UniProt Q9GZT9)
T1 construct: FLAG-tagged full length PHD2 expressed in and purified from baculovirus-infected Sf9 cells; FLAG; made in house; host or cells: baculovirus-infected Sf9 cells
Experiment: HIF-PHD2 inhibition: hydroxylation of HIF-1α peptide, time resolved fluorescence
Type: biochemical
Details: FLAG-tagged full length PHD2; 0.2 μM 2-oxoglutarate, 0.5 μM HIF-1α peptide
Procedure: To each well of a 384-well plate, 1 μL of test compounds in DMSO (final concentration ranging from 0.3 nM to 10 μM) were added into 20 μl of assay buffer (50 mM Tris pH 7.4/0.01% Tween-20/0.1 mg/ml bovine serum albumin/10 μM ferrous sulfate/1 mM sodium ascorbate/20 μg/ml catalase) containing 0.15 μg/ml FLAG-tagged full length PHD2 expressed in and purified from baculovirus-infected Sf9 cells. After a 5 min preincubation at room temperature, the enzymatic reactions were initiated by the addition of 4 μL of substrates {final concentrations of 0.2 μM 2-oxoglutarate and 0.5 μM HIF-1α peptide biotinyl-DLDLEMLAPYIPMDDDFQL (SEQ ID NO: 1)}. After incubation for 45 minutes at room temperature, the reactions were terminated by the addition of a 25 μL quench/detection mix to a final concentration of 1 mM ortho-phenanthroline, 0.1 mM EDTA, 0.5 nM anti-(His)6 LANCE reagent (Perkin-Elmer Life Sciences), 100 nM AF647-labeled streptavidin (Invitrogen), and 2 μg/ml (His)6-VHL complex {S. Tan Protein Expr. Purif. 21, 224-234 (2001)} and the signals were developed for 30 minutes at room temperature. The ratio of time resolved fluorescence signals at 665 and 620 nm was determined, and percent inhibition was calculated relative to the high control samples (DMSO treated) run in parallel, after background subtraction.

T1 sequence (Q9GZT9 whole entry): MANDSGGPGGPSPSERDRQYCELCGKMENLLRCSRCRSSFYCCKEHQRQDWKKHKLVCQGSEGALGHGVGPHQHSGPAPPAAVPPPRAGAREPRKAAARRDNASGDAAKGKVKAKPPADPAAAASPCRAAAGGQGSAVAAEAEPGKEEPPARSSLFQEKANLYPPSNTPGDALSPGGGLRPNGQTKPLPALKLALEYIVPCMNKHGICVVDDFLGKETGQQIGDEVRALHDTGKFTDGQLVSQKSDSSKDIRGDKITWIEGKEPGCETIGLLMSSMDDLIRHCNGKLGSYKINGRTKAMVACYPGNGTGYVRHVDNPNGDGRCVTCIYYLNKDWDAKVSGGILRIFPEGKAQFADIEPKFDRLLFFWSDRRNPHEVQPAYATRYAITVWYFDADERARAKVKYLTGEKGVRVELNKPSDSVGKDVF

Row | SMILES | IC50
1 | N#Cc1ccc(C(NC(=O)c2cnc(C(=O)NC[C@@H](O)C(=O)O)nc2O)c2ccccc2)cc1 (single isomer, unassigned) [Example 8] | 6.8 nM
2 | N#Cc1ccc(C(NC(=O)c2cnc(C(=O)NC[C@@H](O)C(=O)O)nc2O)c2ccccc2)cc1 (single isomer, unassigned) [Example 9] | 27.2 nM
3 | COc1ccc(C(NC(=O)c2cnc(C(=O)NCC(C)C(=O)O)nc2O)c2ccc(OC)cc2)cc1 (single isomer, unassigned) [Example 18, (R) or (S)-3-(5-((bis(4-methoxyphenyl)methyl)carbamoyl)-4-hydroxypyrimidine-2-carboxamido)-2-methylpropanoic acid] | 15 nM
4 | COc1ccc(-c2ccc(C(C)(C)NC(=O)c3cnc(C(=O)NCC(C)C(=O)O)nc3O)cn2)cc1 (single isomer, unassigned) [Example 19, (R) or (S)-3-(4-hydroxy-5-((2-(6-(4-methoxyphenyl)pyridin-3-yl)propan-2-yl)carbamoyl)pyrimidine-2-carboxamido)-2-methylpropanoic acid] | 2.8 nM
5 | CC(CNC(=O)c1ncc(C(=O)NC(C)(C)c2ccc(-c3ccc(C(F)(F)F)cc3)cc2)c(O)n1)C(=O)O (single isomer, unassigned) [Example 20, (R) or (S)-3-(4-hydroxy-5-((2-(4′-(trifluoromethyl)-[1,1′-biphenyl]-4-yl)propan-2-yl)carbamoyl)pyrimidine-2-carboxamido)-2-methylpropanoic acid] | 8.1 nM
6 | CC(CNC(=O)c1ncc(C(=O)NC(C)(C)c2ccc(-c3cccc4cnccc34)cc2)c(O)n1)C(=O)O (single isomer, unassigned) [Example 21, (R) or (S)-2-((2-carboxypropyl)carbamoyl)-6-hydroxy-5-((2-(4-(isoquinolin-5-yl)phenyl)propan-2-yl)carbamoyl)pyrimidin-1-ium formate] | 4.8 nM
7 | CC(CNC(=O)c1ncc(C(=O)NC(C)(C)c2ccc(-c3cccnc3)cc2)c(O)n1)C(=O)O (single isomer, unassigned) [Example 22, (R) or (S)-2-((2-carboxypropyl)carbamoyl)-6-hydroxy-5-((2-(4-(pyridin-3-yl)phenyl)propan-2-yl)carbamoyl)pyrimidin-1-ium formate] | 3 nM
8 | Cc1cc(C#N)ccc1-c1ccc(C(C)(C)NC(=O)c2cnc(C(=O)NCC(C)C(=O)O)nc2O)cc1 (single isomer, unassigned) [Example 23, (R) or (S)-3-(5-((2-(4′-cyano-2′-methyl-[1,1′-biphenyl]-4-yl)propan-2-yl)carbamoyl)-4-hydroxypyrimidine-2-carboxamido)-2-methylpropanoic acid] | 12 nM
9 | CC(CNC(=O)c1ncc(C(=O)NC(C)(C)c2ccc(-c3ccc(F)cc3)cc2)c(O)n1)C(=O)O (single isomer, unassigned) [Example 24, (R) or (S)-3-(5-((2-(4′-fluoro-[1,1′-biphenyl]-4-yl)propan-2-yl)carbamoyl)-4-hydroxypyrimidine-2-carboxamido)-2-methylpropanoic acid] | 4.8 nM
10 | CC(CNC(=O)c1ncc(C(=O)NC(C)(C)c2ccc(-c3ccc(OC(F)(F)F)cc3)cc2)c(O)n1)C(=O)O (single isomer, unassigned) [Example 25, (R) or (S)-3-(4-hydroxy-5-((2-(4′-(trifluoromethoxy)-[1,1′-biphenyl]-4-yl)propan-2-yl)carbamoyl)pyrimidine-2-carboxamido)-2-methylpropanoic acid] | 13 nM
11 | COc1ccc(-c2ccc(C(C)(C)NC(=O)c3cnc(C(=O)NCC(C)C(=O)O)nc3O)cc2)cn1 (single isomer, unassigned) [Example 26, (R) or (S)-2-((2-carboxypropyl)carbamoyl)-6-hydroxy-5-((2-(4-(6-methoxypyridin-3-yl)phenyl)propan-2-yl)carbamoyl)pyrimidin-1-ium chloride] | 3.4 nM
12 | CC(CNC(=O)c1ncc(C(=O)NC(C)(C)c2ccc(-c3cc[nH]n3)cc2)c(O)n1)C(=O)O (single isomer, unassigned) [Example 27, (R) or (S)-5-((2-(4-(1H-pyrazol-3-yl)phenyl)propan-2-yl)carbamoyl)-2-((2-carboxypropyl)carbamoyl)-6-hydroxypyrimidin-1-ium formate] | 5.8 nM
13 | CC(CNC(=O)c1ncc(C(=O)NC(C)(C)c2ccc(-c3ccc(Cl)cc3)cc2)c(O)n1)C(=O)O (single isomer, unassigned) [Example 28, (R) or (S)-3-(5-((2-(4′-chloro-[1,1′-biphenyl]-4-yl)propan-2-yl)carbamoyl)-4-hydroxypyrimidine-2-carboxamido)-2-methylpropanoic acid] | 5.9 nM
14 | CC(CNC(=O)c1ncc(C(=O)NC2(c3ccc(-c4ccc(Cl)cc4)cc3)CC2)c(O)n1)C(=O)O (single isomer, unassigned) [Example 30, (R) or (S)-3-(5-((1-(4′-chloro-[1,1′-biphenyl]-4-yl)cyclopropyl)carbamoyl)-4-hydroxypyrimidine-2-carboxamido)-2-methylpropanoic acid] | 13 nM
15 | CC(CNC(=O)c1ncc(C(=O)NC2(c3ccc(-c4cccc5cnccc45)cc3)CC2)c(O)n1)C(=O)O (single isomer, unassigned) [Example 31, (R) or (S)-2-((2-carboxypropyl)carbamoyl)-6-hydroxy-5-((1-(4-(isoquinolin-5-yl)phenyl)cyclopropyl)carbamoyl)pyrimidin-1-ium formate] | 10 nM
16 | CC(CNC(=O)c1ncc(C(=O)NC2(c3ccc(-c4ccc(F)cc4)cc3)CC2)c(O)n1)C(=O)O (single isomer, unassigned) [Example 32, (R) or (S)-3-(5-((1-(4′-fluoro-[1,1′-biphenyl]-4-yl)cyclopropyl)carbamoyl)-4-hydroxypyrimidine-2-carboxamido)-2-methylpropanoic acid] | 12 nM
17 | COc1ccc(-c2ccc(C3(NC(=O)c4cnc(C(=O)NCC(C)C(=O)O)nc4O)CC3)cc2)cn1 (single isomer, unassigned) [Example 33, (R) or (S)-2-((2-carboxypropyl)carbamoyl)-6-hydroxy-5-((1-(4-(6-methoxypyridin-3-yl)phenyl)cyclopropyl)carbamoyl)pyrimidin-1-ium chloride] | 4.3 nM
18 | CNc1ccc(C(NC(=O)c2cnc(C(=O)NCCC(=O)O)nc2O)c2ccc(OC)cc2)cn1 (single isomer, unassigned) [Example 34, (R) or (S)-3-(4-hydroxy-5-(((4-methoxyphenyl)(6-(methylamino)pyridin-3-yl)methyl)carbamoyl)pyrimidine-2-carboxamido)propanoic acid] | 0.58 nM
19 | CC(O)(CNC(=O)c1ncc(C(=O)NC(c2ccccc2)c2ccccc2)c(O)n1)C(=O)O (stereo not drawn) [Example 3, 3-(5-(Benzhydrylcarbamoyl)-4-hydroxypyrimidine-2-carboxamido)-2-hydroxy-2-methylpropanoic acid] | 4.1 nM
20 | O=C(NCC(O)C(=O)O)c1ncc(C(=O)NC(c2ccccc2)c2ccccc2)c(O)n1 (stereo not drawn) [Example 5, 3-(5-(benzhydrylcarbamoyl)-4-hydroxypyrimidine-2-carboxamido)-2-hydroxypropanoic acid] | 0.9 nM
21 | COc1ccc([C@@H](NC(=O)c2cnc(C(=O)NC[C@@H](O)C(=O)O)nc2O)c2ccccc2)cc1 [Example 10, (R)-2-Hydroxy-3-(4-hydroxy-5-(((S)-(4-methoxyphenyl) (phenyl)methyl)carbamoyl)pyrimidine-2-carboxamido)propanoic acid] | 6.8 nM
22 | CC(C)(NC(=O)c1cnc(C(=O)NC[C@@H](O)C(=O)O)nc1O)c1ccc(C(F)(F)F)cc1 [Example 11, (R)-2-hydroxy-3-(4-hydroxy-5-((2-(4-(trifluoromethyl)phenyl)propan-2-yl)carbamoyl)pyrimidine-2-carboxamido)propanoic acid] | 1.5 nM
23 | COc1ccc([C@H](NC(=O)c2cnc(C(=O)NC[C@@H](O)C(=O)O)nc2O)c2ccccc2)cc1 [Example 12, (R)-2-hydroxy-3-(4-hydroxy-5-(((R)-(4-methoxyphenyl)(phenyl)methyl)carbamoyl)pyrimidine-2-carboxamido)propanoic acid] | 8.7 nM
24 | CC(CNC(=O)c1ncc(C(=O)NC(c2ccc(Cl)cc2)c2ccc(Cl)cc2)c(O)n1)C(=O)O (stereo not drawn) [Example 13] | 4.88 nM
25 | COc1ccc([C@@H](NC(=O)c2cnc(C(=O)NCCC(=O)O)nc2O)c2ccc(Cl)cc2)cc1 [Example 35, (R)-3-(5-(((4-chlorophenyl)(4-methoxyphenyl)methyl)carbamoyl)-4-hydroxypyrimidine-2-carboxamido)propanoic acid] | 0.9 nM
26 | COc1ccc(C(NC(=O)c2cnc(C(=O)NCCC(=O)O)nc2O)c2ccccc2)cc1 (stereo not drawn) [Example 38] | 0.9 nM
27 | O=C(O)CCNC(=O)c1ncc(C(=O)NC(c2ccc(Cl)cc2)c2ccc(C(F)(F)F)cc2)c(O)n1 (stereo not drawn) [Example 40, 3-(5-(((4-chlorophenyl)(4-(trifluoromethyl)phenyl)methyl)carbamoyl)-4-hydroxypyrimidine-2-carboxamido)propanoic acid] | 0.9 nM

— patent US20170247336A1 (MERCK SHARP & DOHME CORP., priority 2014, published 2017)
